Patent publication US20250090562A1, “METHODS, COMPOSITIONS AND USES RELATED TO THE TREATMENT AND PREVENTION OF LEIGH’S SYNDROME” (Stealth BioTherapeutics Inc., priority 2023, published 2025)

Columns and labels:
Assay type in all cases: cell-based, human
15-lipoxygenase (15-LO) = assay: 15(S)-HETE ELISA following RSL3 treatment, healthy fibroblasts; settings: 700 nM RSL3, 1 μM compound, 24 h
Method: Samples for the 15(S)-HETE ELISA were generated by the RSL3 cytoprotection assay described above. Healthy or Leigh fibroblasts were resuspended in assay medium, seeded at 200,000 cells per well in a clear, tissue culture-treated, 24-well plate. Cells were incubated at 37° C. for 24 hours. Supernatant was aspirated from each well following the incubation.
Fibroblasts from both a healthy individual and a patient diagnosed with Leigh syndrome were examined (but not all compounds were examined in each cell type). Activation of ferroptosis has been implicated as a driver of epilepsy, which is commonly associated with Leigh syndrome. […] Kahn-Kirby et al. PLOS One. […] As a key regulator of ferroptosis, 15-LO serves as a rational therapeutic target in Leigh syndrome.

[1] = test system: Leigh (GM03672) fibroblasts; assay: Erastin cytoprotection assay, Leigh fibroblasts; settings: 2 μM erastin, 250 μM FAC, 50 μM AA, 10-1000 nM compound, 24 h
Method: (§1) Briefly, Healthy (GM08402) or Leigh (GM03672) fibroblasts were resuspended in assay medium, seeded at 10,000 cells per well in a clear, tissue cultured-treated, 96-well plate, and incubated at 37° C. overnight. Following the incubation, supernatant was manually aspirated from wells, taking care not to disrupt cells. Fibroblasts were co-treated in a final volume of 100 μL with 2 μM erastin (Millipore Corp., Cat #), 250 μM ferric ammonium citrate (FAC), 50 μM ascorbic acid (AA), and a titration of one of each of Compounds 1 to 4 or Vatiquinone ranging from 10 to 1000 nM. Following another 24-hour incubation at 37° C., cell viability was measured using the CellTiter-Glo Luminescent Cell Viability Kit (ProMega) per Manufacturer's instructions. Luminescence units were quantified by GEN5 software on a BioTek SYNERGY neo2 plate reader (LUM filter).
(§2) Briefly, erastin, like RSL3, is known to induce ferroptosis. […] Erastin was incubated with cell fibroblasts for 24 hours to induce ferroptosis. Cells were co-treated with each of Compounds 1 to 4, or Vatiquinone as the test articles. Test articles were administered at a range of concentrations to derive a curve. Cell viability was determined using a commercially available kit that measures ATP production. […] An increase in cell viability as determined by the assay is considered to be protective against ferroptosis.

[2] = test system: Healthy (GM08402) fibroblasts; assay: Erastin cytoprotection assay, healthy fibroblasts; settings: 2 μM erastin, 250 μM FAC, 50 μM AA, 10-1000 nM compound, 24 h
Method: as §1, §2

[3] = test system: Healthy (GM08402) fibroblasts; assay: RSL3 cytoprotection assay, healthy fibroblasts; settings: 1 μM RSL3, 10-1000 nM compound, 4 h
Method: Patient fibroblasts were acquired from Coriell Institute for Medical Research (Camden, NJ, USA). GM03672 is an untransformed fibroblast cell line from a Leigh syndrome patient carrying an unknown mutation. GM08402 is an untransformed fibroblast from an apparently healthy individual. Cells were cultured at 37° C. at 5% CO2 in Eagle's Minimum Essential Medium (MEM, Corning), which was supplemented with Earle's salts and non-essential amino acids, 15% qualified fetal bovine serum, and 1% penicillin/streptomycin ([…]) to yield “Complete MEM.”
To initiate the RSL3 cytoprotection experiment, Healthy (GM08402) and Leigh syndrome (GM03672) fibroblasts were resuspended in Complete MEM. Cells were seeded at 10,000 cells per well in a clear, tissue cultured-treated, 96-well plate and incubated at 37° C. overnight. Following the incubation, supernatant was manually aspirated, taking care not to disrupt cells. […]. Luminescence units were quantified by GEN5 software on a BioTek SYNERGY neo2 plate reader (LUM filter).
RSL3 is an inhibitor of the enzyme glutathione peroxidase 4 (GPX4), which decreases lipid peroxides. RSL3 inhibition of GPX4 induces ferroptosis through iron-dependent accumulation of lipid ROS. In this assay, Healthy or Leigh fibroblasts were treated for 4 hours with RSL3 to induce ferroptosis or left untreated. Endogenous ATP levels were measured as an indicator of cellular viability using a commercially available kit (CellTiter-Glo® 2.0 Cell Viability Assay (Promega)).
[…]. […] Briefly, ferroptosis was induced with 1 μM RSL3 in healthy fibroblast cells and 375 nM RSL3 in fibroblasts from a patient with Leigh syndrome.
A preliminary experiment was performed to determine the effect of RSL3 injury on the fibroblasts of a healthy individual (cell line: GM08402) and the fibroblasts of a patient diagnosed with Leigh syndrome (cell line: GM03672).

Compound	inhibition of 15-lipoxygenase (15(S)-HETE in supernatant) (15-lipoxygenase (15-LO))	relative 15-LO inhibition (comparison between test articles) (15-lipoxygenase (15-LO))	relative protective effect against erastin induced ferroptosis (cell viability, ATP) [1]	relative protective effect against erastin induced ferroptosis (cell viability, ATP) [2]	relative anti-ferroptosis properties (comparison between test articles) [3]
CC1=C(C)C(=O)C(CC[C@@](C)(O)CC/C=C(\C)CCC=C(F)F)=C(C)C1=O [Compound 2]	inhibited 15-lipoxygenase	roughly equivalent protective effect	superior in their protective effect as compared with Vatiquinone or Compounds 1 or 4	superior in their protective effect as compared with Vatiquinone or Compounds 1 or 4	superior to Compounds 1, 4 and Vatiquinone
CC1=C(C)C(=O)C(CC[C@@](C)(O)COCCC[Si](C)(C)C)=C(C)C1=O [Compound 3]	inhibited 15-lipoxygenase	superior to Compounds 2, 4 and Vatiquinone	superior in their protective effect as compared with Vatiquinone or Compounds 1 or 4	superior in their protective effect as compared with Vatiquinone or Compounds 1 or 4	superior to Compounds 1, 4 and Vatiquinone
CC1=C(C)C(=O)C(CC[C@](C)(O)CCCCCCCCC(F)(F)F)=C(C)C1=O [Compound 4]	inhibited 15-lipoxygenase	roughly equivalent protective effect	about equally protective	about equally protective	roughly equivalent in their anti-ferroptosis properties
